Test results as given in publication PMC10762078, “Role of UPF1-LIN28A interaction during early differentiation of pluripotent stem cells” (Nature Communications, 2024).
Ends that are not written are not given here.

Experiments:
[1] = system: CHA15 cells; assay: Immunostaining of SOX1, DLK1 and LHX2 during ectodermal differentiation (Fig. 7b); format: cell-based, human; conditions: for DLK1 fluorescence quantification, mean / LHX2 fluorescence quantification, mean / SOX1 fluorescence quantification, mean: mean of set1-set4
Experimental: (§1) For CPP-conjugated peptide delivery, HeLa, 293T, and PA-1 cells were incubated with CPP-conjugated peptides or CPP-FITC at 2 μM in DMEM with 10% FBS for 12 h a day before cell harvest. hPSCs were treated with CPP-conjugated peptides at 10 μM in mTeSR Plus Medium, and the peptide-containing medium was changed every day over 10 days. The ROCK inhibitor (Tocris Bioscience, Y-27632) treated-hPSCs were dissociated into single cells using Accutase (Merck, SCR005) and differentiated into ectoderm, mesoderm, and endoderm using the STEMdiff Trilineage Differentiation Kit ([…] Technologies, 05230) following the manufacturer’s protocol. Differentiated cells treated with CPP-conjugated peptides were analysed at 0, 3, and 5 days for ectoderm and endoderm, and at 0, 3, and 4 days for mesoderm.
hPSCs or differentiated cells were fixed in 4% paraformaldehyde (Sigma-Aldrich). After 15–20 min, the cells were washed with 0.1% bovine serum albumin in phosphate-buffered saline (BSA/PBS) thrice and blocked for 1 h by adding 0.3% Triton X-100 (Sigma-Aldrich) and 10% normal goat serum (NGS; Fitzgerald industries, NG22S). After blocking, cells were incubated with the following primary antibodies: anti-UPF1 (Cell Signaling Technology, 12040; 1:500), LIN28A (Cell Signaling Technology, 3978; 1:500), OCT4 (Santa Cruz, sc-5279; 1:500), NANOG (Cell Signaling Technology, 4903; 1:500), DLK1 (GeneTex, GTX60511; 1:500), SOX1 (Cell Signaling Technology, 4194; 1:500), or LHX2 (GeneTex, GTX129241; 1:500). Primary antibodies were incubated overnight at 4 °C followed by incubation with the following secondary antibodies: Cy3 (Jackson ImmunoResearch, 115-165-146; 1:500) or Alexa Fluor 488 (Invitrogen, A-11008; 1:500) followed by the incubation with secondary fluorescence-conjugated antibodies for 1 h. The cells were mounted in […] with DAPI mounting medium (Vector Laboratories, H1200).
Immunofluorescence staining, proximity ligation assay imaging, and cell-penetrating efficiency of CPP-FITC were imaged with a confocal laser scanning microscope (Leica, TSC SP5) or immunofluorescence microscope (Leica, DM5000B). Z-stacks were captured, with sections spanning the entire cell. The LAS X Life Science program was used to obtain the maximum intensity projections and cross-sections of the confocal images.

[2] = system: hPSCs (CHA15, H9, Pro2); assay: Long-term culture with CPP-peptides: morphology, spontaneous differentiation, lineage marker RT-qPCR (Supplementary Fig. 6c); format: cell-based, human
Experimental: as §1, with “and the peptide-containing medium was changed every day over 10 days.” left out, “mesoderm. […]” for “mesoderm.”
cDNA was synthesised using RevertAid Reverse Transcriptase (Thermo Fisher Scientific, EP0441) with synthesised random hexamer (Macrogen) for total RNA or stem-loop primers for miRNA. For RT-qPCR reactions, the SensiFAST SYBR No-ROX kit (Meridian Bioscience) was used according to the manufacturer’s protocol. All data analysis and visualisation were conducted using R 3.6.1 [www.r-project.org] or GraphPad Prism 10. RT primers for miRNA and RT-qPCR primer sequences are provided in Supplementary Data 6. […]
Cell m orphology was visualised by phase contrast m icroscopy. T he red boundary indicated the spontaneously differentiated hPSCs. RT -qPCR was perform ed to m easure the relative levels of each lineage m ark er. […]
5p and m iR-16- 5p was shown as CDF graphs. T he relative level of m RNA was norm alised to that of U6 snRNA in (c, d, and f). K–S tests were used for e and f. Unpaired Student’s t-test was used for c , d, and f . * p < 0.05, ** p < 0.01, *** p < 0.001. Exact p -values were provided in Source data. Data are presented as m ean values ± SEM. All statistical test used were two- sided. T he m inim um num ber of independent biological replicate experim ents was a and e n = 2, b–d and f n = 3. T he experim ents were conducted three tim es, each iteration producing consistent results.

[3] = ectodermal differentiation, CHA15
[4] = Fig 7b, vs. P1, ± SEM, unpaired t test, df=6
[5] = RT-qPCR, CHA15 cell, group 1, mean of set1-set3, Mean of A = 1
[6] = RT-qPCR, CHA15 cell, group 2, mean of set1-set3, Mean of A = 1
[7] = RT-qPCR, CHA15 cell, group 3, mean of set1-set3, Mean of A = 1
[8] = RT-qPCR, H9 cell, group 1, mean of set1-set3, Mean of A = 1
[9] = RT-qPCR, H9 cell, group 2, mean of set1-set3, Mean of A = 1
[10] = RT-qPCR, Pro2 cell, group 1, mean of set1-set3, Mean of A = 1
[11] = RT-qPCR, Pro2 cell, group 2, mean of set1-set3, Mean of A = 1

## KKKWCRKKKSSADEKRYRALKRTAERELLMNA [CPP-P8, CPP conjugated to P8]
[1]; [3]
  DLK1 and LHX2 expression: increased DLK1 and LHX2 expression
  SOX1 expression: abrogated SOX1 expression
[2]; hPSCs, over 15 days
  cell morphology and spontaneous differentiation: altered the cell morphology, induced spontaneous differentiation, and regulated the levels of differentiated makers
[2]; hPSCs, proliferation
  levels of differentiated markers: upregulated the levels of differentiated markers

## KKKWCRKKKSSADEKRYRALKRTAERELLMNA [P8]
[1]; Fig 7b
  DLK1 fluorescence quantification, mean: 98
  LHX2 fluorescence quantification, mean: 65.64
  SOX1 fluorescence quantification, mean: 40.11
[1]; [4]
  DLK1 fluorescence quantification, difference between means ± SEM: 67.91 ± 4.905
  LHX2 fluorescence quantification, difference between means ± SEM: 30.85 ± 5.040
  SOX1 fluorescence quantification, difference between means ± SEM: -20.06 ± 8.048
[2]; [5]
  CDH9, Mean of column B: 3.237
  DLK1, Mean: 13.42
  DMBX1, Mean: 7.311
  RAX, Mean: 3.757
[2]; [6]
  DLK1, Mean: 23.82
  LHX2, Mean: 41.74
  POU5F1, Mean of column B: 0.6246
  RAX, Mean: 18.83
[2]; [7]
  CDH9, Mean of column B: 2.791
  LHX2, Mean: 5.887
  POU5F1, Mean of column B: 0.7547
  RAX, Mean: 2.315
[2]; [8]
  DLK1, Mean: 3.511
  DMBX1, Mean: 5.531
  LHX2, Mean: 2.919
  PAX6, Mean of column B: 3.972
[2]; [9]
  DLK1, Mean: 2.588
  LHX2, Mean: 115.8
  NANOG, Mean: 0.1136
  TBX6, Mean of column B: 22.31
[2]; [10]
  DLK1, Mean: 6.526
  LHX2, Mean: 0.3053
  POU5F1, Mean of column B: 0.5752
  RAX, Mean: 3.096
[2]; [11]
  DLK1, Mean: 9.273
  LHX2, Mean: 16.93
  NANOG, Mean: 0.2569
  POU5F1, Mean of column B: 0.08931

## N-QKLDQKELQLEPM-C [P1, reference compound]
[1]; Fig 7b
  DLK1 fluorescence quantification, mean: 30.09
  LHX2 fluorescence quantification, mean: 34.79
  SOX1 fluorescence quantification, mean: 60.17
